According to US6737383B1, “Herbicidal oxadiazolidines” (priority 1999, dated 2004):

What was measured:
blackgrass = assay: Test B pre/postemergence blackgrass; assay type: in vivo, Alopecurus myosuroides
Summary of the method: (§1)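 Response is a visual 0-to-10 score relative to untreated plants, where 0 means no effect and 10 means complete control, taken twelve to sixteen days after application. Treatments went onto soil at planting and onto foliage of 1- to 4-leaf plants, using a surfactant-containing non-phytotoxic solvent.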

bedstraw = assay: Test B pre/postemergence bedstraw; assay type: in vivo, Galium aparine
Summary of the method: as §1

wild oat = assay: Test B pre/postemergence wild oat; assay type: in vivo, Avena fatua
Summary of the method: as §1

soybean = assay: Test B pre/postemergence soybean; assay type: in vivo, Glycine max
Summary of the method: as §1

sugar beet = assay: Test B pre/postemergence sugar beet; assay type: in vivo, Beta vulgaris
Summary of the method: as §1

purple nutsedge = assay: Test B pre/postemergence purple nutsedge; assay type: in vivo, Cyperus rotundus
Summary of the method: as §1

surinam grass = assay: Test B pre/postemergence surinam grass; assay type: in vivo, Brachiaria decumbens
Summary of the method: as §1

rape = assay: Test B pre/postemergence rape; assay type: in vivo, Brassica napus
Summary of the method: as §1

bamyardgrass = assay: Test B flood test barnyardgrass; assay type: in vivo, Echinochloa crus-galli
Summary of the method: (§2)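 Read-out is a visual response score from 0 (no effect) to 10 (complete control), assigned by comparison with untreated controls. Treatment was applied at the 2-leaf stage, and plants stayed in the greenhouse for twelve to sixteen days before scoring.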

pigweed = assay: Test B pre/postemergence pigweed; assay type: in vivo, Amaranthus retroflexus
Summary of the method: as §1

morningglory = assay: Test B pre/postemergence morningglory; assay type: in vivo, Ipomoea hederacea
Summary of the method: as §1

corn = assay: Test B pre/postemergence corn; assay type: in vivo, Zea mays
Summary of the method: as §1

cocklebur = assay: Test B pre/postemergence cocklebur; assay type: in vivo, Xanthium strumarium
Summary of the method: as §1

rice = assay: Test B flood test rice; assay type: in vivo, Oryza sativa
Summary of the method: as §2

velvetleaf = assay: Test B pre/postemergence velvetleaf; assay type: in vivo, Abutilon theophrasti
Summary of the method: as §1

smallflower flatsedge = assay: Test B flood test smallflower flatsedge; assay type: in vivo, Cyperus difformis
Summary of the method: as §2

[1] = Postemergence, Rate 62 g/ha, scale 0 to 10, 0 is no effect, 10 is complete control
[2] = Postemergence, Rate 250 g/ha, scale 0 to 10, 0 no effect, 10 complete control
[3] = Preemergence, Rate 62 g/ha, scale 0 to 10 (0 no effect, 10 complete control)
[4] = Preemergence, Rate 125 g/ha, scale 0 to 10 (0 no effect, 10 complete control)
[5] = Preemergence, Rate 250 g/ha, scale of 0 to 10 where 0 is no effect and 10 is complete control
[6] = Preemergence, Rate 500 g/ha, scale 0 (no effect) to 10 (complete control)
[7] = Rate 125 g/ha, Postemergence, scale 0 to 10, 0 no effect, 10 complete control
[8] = Rate 500 g/ha, Postemergence, scale 0 to 10, 0 no effect, 10 complete control
[9] = Rate 125 g/ha, Postemergence section (flood test species), scale 0 to 10, 0 no effect, 10 complete control
[10] = Rate 500 g/ha, listed under Postemergence (flood test species), scale 0 to 10, 0 no effect, 10 complete control
[11] = flood test, listed under Postemergence, Rate 250 g/ha, scale 0 to 10, 0 no effect, 10 complete control

CC(C)N(C(=O)n1oc(=O)n(Cc2cccs2)c1=O)c1ccc(F)cc1 [Compound 80] was tested, and the “Blackgrass plant response rating” value (blackgrass; [1]) was 2, the “Blackgrass plant response rating” value (blackgrass; [2]) was 3 and the “Blackgrass plant response rating” value (blackgrass; [3]) was 0. For the same compound, the “Plant response rating, Blackgrass” value (blackgrass; [4]) was 2, the “Plant response rating, Blackgrass” value (blackgrass; [5]) was 4 and the “Blackgrass plant response rating” value (blackgrass; [6]) was 6. The “Blackgrass plant response rating” value (blackgrass; [7]) was 2, the “Blackgrass plant response rating” value (blackgrass; [8]) was 5 and the “Bedstraw plant response rating” value (bedstraw; [1]) was 0. For the same compound, the “Bedstraw plant response rating” value (bedstraw; [2]) was 0, the “Bedstraw plant response rating” value (bedstraw; [3]) was 0 and the “Plant response rating, Bedstraw” value (bedstraw; [4]) was 0. The “Plant response rating, Bedstraw” value (bedstraw; [5]) was 0, the “Bedstraw plant response rating” value (bedstraw; [6]) was 0 and the “Bedstraw plant response rating” value (bedstraw; [7]) was 0. The “Bedstraw plant response rating” value (bedstraw; [8]) was 6, the “Wild oats plant response rating” value (wild oat; [1]) was 0 and the “Wild oats plant response rating” value (wild oat; [2]) was 0. For the same compound, the “Wild oats plant response rating” value (wild oat; [3]) was 0, the “Plant response rating, Wild oats” value (wild oat; [4]) was 2 and the “Plant response rating, Wild oats” value (wild oat; [5]) was 3. The “Wild oats plant response rating” value (wild oat; [6]) was 5, the “Wild oats plant response rating” value (wild oat; [7]) was 0 and the “Wild oats plant response rating” value (wild oat; [8]) was 0. For the same compound, the “Soybean plant response rating” value (soybean; [1]) was 0, the “Soybean plant response rating” value (soybean; [2]) was 1 and the “Soybean plant response rating” value (soybean; [3]) was 0. The “Plant response rating, Soybean” value (soybean; [4]) was 0, the “Plant response rating, Soybean” value (soybean; [5]) was 0 and the “Soybean plant response rating” value (soybean; [6]) was 0. The “Soybean plant response rating” value (soybean; [7]) was 1, the “Soybean plant response rating” value (soybean; [8]) was 2 and the “Sugarbeets plant response rating” value (sugar beet; [2]) was 4. The “Sugarbeets plant response rating” value (sugar beet; [3]) was 0, the “Plant response rating, Sugarbeets” value (sugar beet; [4]) was 3 and the “Plant response rating, Sugarbeets” value (sugar beet; [5]) was 4. For the same compound, the “Sugarbeets plant response rating” value (sugar beet; [6]) was 5, the “Sugarbeets plant response rating” value (sugar beet; [7]) was 3 and the “Sugarbeets plant response rating” value (sugar beet; [8]) was 7. The “Nutsedge plant response rating” value (purple nutsedge; [1]) was 0, the “Nutsedge plant response rating” value (purple nutsedge; [2]) was 0 and the “Nutsedge plant response rating” value (purple nutsedge; [3]) was 0. For the same compound, the “Plant response rating, Nutsedge” value (purple nutsedge; [4]) was 0, the “Plant response rating, Nutsedge” value (purple nutsedge; [5]) was 0 and the “Nutsedge plant response rating” value (purple nutsedge; [6]) was 0. For the same compound, the “Nutsedge plant response rating” value (purple nutsedge; [7]) was 0, the “Nutsedge plant response rating” value (purple nutsedge; [8]) was 0 and the “B. signalgrass plant response rating” value (surinam grass; [1]) was 0. For the same compound, the “B. signalgrass plant response rating” value (surinam grass; [2]) was 0, the “B. signalgrass plant response rating” value (surinam grass; [3]) was 0 and the “Plant response rating, B. signalgrass” value (surinam grass; [4]) was 0. For the same compound, the “Plant response rating, B. signalgrass” value (surinam grass; [5]) was 0, the “B. signalgrass plant response rating” value (surinam grass; [6]) was 4 and the “B. signalgrass plant response rating” value (surinam grass; [7]) was 0. For the same compound, the “B. signalgrass plant response rating” value (surinam grass; Rate 500 g/ha, Postemergence, scale of 0 to 10 where 0 is no effect and 10 is complete control) was 0, the “Rape plant response rating” value (rape; [1]) was 2 and the “Rape plant response rating” value (rape; [2]) was 3. The “Rape plant response rating” value (rape; [3]) was 0, the “Plant response rating, Rape” value (rape; [4]) was 3 and the “Plant response rating, Rape” value (rape; [5]) was 4. For the same compound, the “Rape plant response rating” value (rape; [6]) was 5, the “Rape plant response rating” value (rape; [7]) was 2 and the “Rape plant response rating” value (rape; [8]) was 3. For the same compound, the “Barnyardgrass plant response rating” value (bamyardgrass; [1]) was 0, the “Barnyardgrass plant response rating” value (bamyardgrass; [9]) was 3 and the “Barnyardgrass plant response rating” value (bamyardgrass; [10]) was 9. For the same compound, the “Barnyardgrass plant response rating” value (bamyardgrass; [11]) was 8, the “Redroot pigweed plant response rating” value (pigweed; [1]) was 2 and the “Redroot pigweed plant response rating” value (pigweed; [2]) was 4. For the same compound, the “Plant response rating, Redroot pigweed” value (pigweed; [4]) was 7, the “Plant response rating, Redroot pigweed” value (pigweed; [5]) was 7 and the “Redroot pigweed plant response rating” value (pigweed; [6]) was 7. The “Redroot pigweed plant response rating” value (pigweed; [7]) was 3, the “Redroot pigweed plant response rating” value (pigweed; [8]) was 4 and the “Morningglory plant response rating” value (morningglory; [1]) was 7. For the same compound, the “Morningglory plant response rating” value (morningglory; [2]) was 10, the “Morningglory plant response rating” value (morningglory; [3]) was 0 and the “Plant response rating, Morningglory” value (morningglory; [4]) was 0. The “Plant response rating, Morningglory” value (morningglory; [5]) was 0, the “Morningglory plant response rating” value (morningglory; [6]) was 0 and the “Morningglory plant response rating” value (morningglory; [7]) was 8. For the same compound, the “Morningglory plant response rating” value (morningglory; [8]) was 10, the “Corn plant response rating” value (corn; [1]) was 0 and the “Corn plant response rating” value (corn; [2]) was 0. The “Corn plant response rating” value (corn; [3]) was 0, the “Plant response rating, Corn” value (corn; [4]) was 0 and the “Plant response rating, Corn” value (corn; [5]) was 0. For the same compound, the “Corn plant response rating” value (corn; [6]) was 0, the “Corn plant response rating” value (corn; [7]) was 0 and the “Corn plant response rating” value (corn; [8]) was 0. For the same compound, the “Cocklebur plant response rating” value (cocklebur; [1]) was 0, the “Cocklebur plant response rating” value (cocklebur; [2]) was 0 and the “Cocklebur plant response rating” value (cocklebur; [3]) was 0. The “Plant response rating, Cocklebur” value (cocklebur; [4]) was 0, the “Plant response rating, Cocklebur” value (cocklebur; [5]) was 0 and the “Cocklebur plant response rating” value (cocklebur; [6]) was 0. The “Cocklebur plant response rating” value (cocklebur; [7]) was 0, the “Cocklebur plant response rating” value (cocklebur; [8]) was 1 and the “Rice plant response rating” value (rice; [1]) was 0. For the same compound, the “Rice plant response rating” value (rice; [9]) was 0, the “Rice plant response rating” value (rice; [10]) was 2 and the “Rice plant response rating” value (rice; [11]) was 0. For the same compound, the “Velvetleaf plant response rating” value (velvetleaf; [1]) was 0, the “Velvetleaf plant response rating” value (velvetleaf; [2]) was 0 and the “Velvetleaf plant response rating” value (velvetleaf; [3]) was 0. The “Plant response rating, Velvetleaf” value (velvetleaf; [4]) was 0, the “Plant response rating, Velvetleaf” value (velvetleaf; [5]) was 2 and the “Velvetleaf plant response rating” value (velvetleaf; [6]) was 3. For the same compound, the “Velvetleaf plant response rating” value (velvetleaf; [7]) was 0, the “Velvetleaf plant response rating” value (velvetleaf; [8]) was 0 and the “S. Flatsedge plant response rating” value (smallflower flatsedge; [1]) was 0. For the same compound, the “S. Flatsedge plant response rating” value (smallflower flatsedge; [9]) was 0, the “S. Flatsedge plant response rating” value (smallflower flatsedge; [10]) was 3 and the “S. Flatsedge plant response rating” value (smallflower flatsedge; [11]) was 3.
